Laboratory results from article PMC12040169 (PLOS Biology, 2025).

assay: in vitro; conditions: human, hela cells, % viability

Row | Compound | viability at 28.5 h, 10 µM
1 | CCN(Cc1ccncc1)C(=O)NCCN1CCOCC1 [CBK145055] | 92.1%
2 | COc1ccccc1-c1ncc(OCCN2CCOCC2)nc1N [CBK145072] | 113%
3 | COc1ccc(-c2ncc(OCc3cccs3)nc2N)c(OC)c1 [CBK145088] | 84%
4 | COc1ccc(-c2ncc(OCC3CCCN3C)nc2N)c(OC)c1 (stereo not shown) [CBK145091] | 88.9%
5 | Nc1nc(OCCOc2ccccc2)cnc1-c1ccc2c(c1)OCO2 [CBK145097] | 83.4%
6 | COCOc1ccc(-c2ncc(OCCN3CCOCC3)nc2N)cc1 [CBK145100] | 87.7%
7 | COCc1cccc(-c2ncc(OCCN3CCCC3=O)nc2N)c1 [CBK145110] | 93.6%
8 | COCc1cccc(-c2ncc(OCC3COc4ccccc4O3)nc2N)c1 (stereo not shown) [CBK145113] | 93.1%
9 | CC(=O)Nc1cccc(Oc2cnc(-c3ccc(OC(F)(F)F)cc3)c(N)n2)c1 [CBK145119] | 91.9%
10 | Nc1nc(OCc2ccc3c(c2)OCO3)cnc1/C=C/c1ccccc1 [CBK145123] | 92.7%
11 | Cc1ccc(-c2ncc(OCc3ccccc3)nc2N)c(C)c1 [CBK145129] | 90.6%
12 | Cc1ccc(-c2ncc(OCC3CCCN3C)nc2N)c(C)c1 (stereo not shown) [CBK145137] | 99.2%
13 | Cc1ccc(-c2ncc(OCCC(C)C)nc2N)cc1C [CBK145145] | 90.5%
14 | Cc1ccc(-c2ncc(OCc3cccs3)nc2N)cc1C [CBK145146] | 101%
15 | Cc1ccc(-c2ncc(OCCn3ccnc3)nc2N)cc1C [CBK145148] | 102%
16 | Cc1ccc(-c2ncc(OCCN(C(C)C)C(C)C)nc2N)cc1C [CBK145150] | 85.9%
17 | Nc1nc(OCCn2cccc2)cnc1-c1ccsc1 [CBK145162] | 92.1%
18 | Cn1cc(-c2ncc(OCCc3c[nH]c4ccccc34)nc2N)cn1 [CBK145166] | 88.3%
19 | Cn1cc(-c2ncc(OCc3ccc4c(c3)OCO4)nc2N)cn1 [CBK145168] | 105%
20 | Cn1cc(-c2ncc(OCCn3cccc3)nc2N)cn1 [CBK145170] | 107%
21 | COc1cccc(Oc2cnc(-c3cccc(C(F)(F)F)c3)c(N)n2)c1 [CBK145177] | 94.2%
22 | CN(C)C(=O)c1ccc(-c2ncc(OCCN3CCOCC3)nc2N)cc1 [CBK145183] | 93.1%

Row | Compound | viability at 28.5 h, 10 µM
23 | CN(C)C(=O)c1ccc(-c2ncc(OCCN3CCCC3=O)nc2N)cc1 [CBK145184] | 97.5%
24 | Cn1c(=O)c2c(ncn2CCOc2cnc(-c3cnn(Cc4ccccc4)c3)c(N)n2)n(C)c1=O [CBK145193] | 97.4%
25 | Nc1nc(OCc2ccncc2)cnc1-c1cnn(Cc2ccccc2)c1 [CBK145194] | 96.7%
26 | CN1CCN(C(=O)c2cccc(-c3ncc(OCC(F)(F)F)nc3N)c2)CC1 [CBK145196] | 91.3%
27 | Nc1nc(OCCN2CCCC2=O)cnc1-c1cc(Cl)cc(Cl)c1 [CBK145199] | 89.3%
28 | CCC(CC)C(=O)Nc1nc(OC)cnc1-c1ccc(OCOC)cc1 [CBK145207] | 108%
29 | COc1ccc(CC(=O)Nc2nc(OC)cnc2/C=C\c2ccccc2)cc1 [CBK145224] | 98.7%
30 | COCc1cccc(-c2ncc(OC)nc2NC(=O)c2c(C)noc2C)c1 [CBK145237] | 95.6%
31 | COCc1cccc(-c2ncc(OCCN3CCCC3=O)nc2NC(C)=O)c1 [CBK145239] | 94.8%
32 | COCOc1ccc(-c2ncc(OC)nc2NC(=O)c2cc(C)oc2C)cc1 [CBK145249] | 97.6%
33 | COCOc1ccc(-c2ncc(OC)nc2NC(=O)c2cc3ccccc3s2)cc1 [CBK145250] | 103%
34 | COc1cnc(-c2ccccc2OC)c(NC(C)=O)n1 [CBK145259] | 89.1%
35 | COc1cnc(-c2ccccc2OC)c(NC(=O)c2ccccc2)n1 [CBK145261] | 101%
36 | COc1ccccc1-c1ncc(OCC(F)(F)F)nc1NC(=O)c1ccco1 [CBK145277] | 98.3%
37 | COc1cnc(-c2ccsc2)c(NC(=O)CC(C)C)n1 [CBK145292] | 94%
38 | COc1ccc(C(=O)Nc2nc(OC)cnc2-c2ccsc2)cc1 [CBK145293] | 81.4%
39 | O=C(Cc1ccccc1)Nc1nc(OCC(F)(F)F)cnc1-c1ccsc1 [CBK145298] | 102%
40 | COc1cnc(-c2cccc(C(F)(F)F)c2)c(NC(=O)Cc2ccccc2)n1 [CBK145308] | 104%
41 | COc1cnc(-c2cnn(C)c2)c(NC(=O)Cc2ccccc2)n1 [CBK145327] | 101%
42 | COc1cnc(-c2cnn(C)c2)c(NC(=O)C2CC2)n1 [CBK145328] | 104%
43 | COc1cnc(-c2cnn(C)c2)c(NC(=O)c2ccco2)n1 [CBK145329] | 103%
44 | COc1cnc(-c2cc(Cl)cc(Cl)c2)c(NC(C)=O)n1 [CBK145333] | 105%

Row | Compound | viability at 28.5 h, 10 µM
45 | CCC(CC)C(=O)Nc1nc(OC)cnc1-c1cc(Cl)cc(Cl)c1 [CBK145338] | 95.8%
46 | COc1cnc(-c2cc(Cl)cc(Cl)c2)c(NC(=O)c2ccsc2)n1 [CBK145340] | 87.8%
47 | COCC(=O)Nc1nc(OC)cnc1/C=C\c1ccccc1 [CBK145360] | 113%
48 | COc1cnc(/C=C\c2ccccc2)c(NC(=O)c2ccco2)n1 [CBK145361] | 90.4%
49 | COc1ccc(C(=O)Nc2nc(OCC(F)(F)F)cnc2/C=C\c2ccccc2)c(OC)c1 [CBK145367] | 104%
50 | O=C(Nc1nc(OCCN2CCCC2=O)cnc1/C=C\c1ccccc1)c1cc2ccccc2s1 [CBK145380] | 115%
51 | CCC(CC)C(=O)Nc1nc(OC)cnc1-c1cccc(C(=O)N(C)C)c1 [CBK145392] | 98.5%
52 | CC(=O)Nc1nc(OCC(F)(F)F)cnc1-c1cccc(C(=O)N(C)C)c1 [CBK145401] | 96%
53 | COc1cnc(-c2ccccc2)c(NC(C)=O)n1 [CBK145410] | 93.4%
54 | CC(=O)Nc1nc(OCC(F)(F)F)cnc1-c1ccc2c(c1)OCO2 [CBK145427] | 91.8%
55 | CCCCN(C)c1c(CC)nc2ccc(C(=O)NCCN3CCCC3)cn12 [CBK145440] | 96.2%
56 | CCCCN(C)c1c(CC)nc2ccc(C(=O)Nc3ccc(OC)c(OC)c3)cn12 [CBK145445] | 95.5%
57 | CCCCN(C)c1c(CC)nc2ccc(C(=O)NC3=NC(=O)CS3)cn12 [CBK145464] | 102%
58 | CCc1nc2ccc(C(=O)Nc3ccc(C(N)=O)cc3)cn2c1N(CCN(C)C)CC1CC1 [CBK145468] | 87.1%
59 | CCc1nc2ccc(C(=O)Nc3ccc(C(N)=O)cc3)cn2c1N(C)CCC(C)C [CBK145476] | 90.7%
60 | CCCCNC(=O)c1ccc2nc(CC)c(N(C)CCC(C)C)n2c1 [CBK145477] | 100%
61 | CCc1nc2ccc(C(=O)N(C)Cc3ccco3)cn2c1N(C)C(=O)c1ccncc1 [CBK145479] | 90.9%
62 | CCc1nc2ccc(C(=O)Nc3cccc(OC)c3)cn2c1N(C)Cc1cccs1 [CBK145522] | 96.7%
63 | CCc1nc2ccc(C(=O)NCCCN3CCCC3=O)cn2c1N(C)Cc1cccs1 [CBK145536] | 95%
64 | CCc1nc2ccc(C(=O)N(C)Cc3ccco3)cn2c1N(C)Cc1cccs1 [CBK145552] | 98.5%
